Measurements reported in publication PMC7534258, “Novel temporin L antimicrobial peptides: promoting self-assembling by lipidic tags to tackle superbugs” (Journal of Enzyme Inhibition and Medicinal Chemistry, 2020).
Entries after “also recorded” stand apart in the source; their conditions may differ. Where a SMILES comes first, the peptide text is derived from it. [ ]: non-standard residue; d: D form. The star is where a group is joined. Phe(4-NH2) = Nc1ccc(C[C@H](N)C(=O)O)cc1; Pentanoyl = CCCCC(=O)*

What was measured:
P. aeruginosa ATCC 27853 = test: Broth microdilution MIC, reference strain; format: cell-based, Pseudomonas aeruginosa
Description: (§1) Staphylococcus aureus ATCC 25923, Pseudomonas aeruginosa ATCC 27853 and Klebsiella pneumoniae ATCC BAA-1705 (carbapenemase producer) were obtained from the American Type Culture Collection (Rockville, MD).
(§2) Identification was performed by sub-culturing on Tryptic Soy Agar (TSA, Becton Dickinson) and by biochemical characterisation using the Vitek II system (Biomerieux). The antimicrobial susceptibility testing of all isolates was determined using Vitek II system and results were interpreted according to European Committee on Antimicrobial Susceptibility Testing (EUCAST version 9.0, 2019). P. aeruginosa was cultured in Brain Heart Infusion broth (BHI, OXOID), S. aureus and K. pneumoniae were cultured in Tryptic Soya broth (TSB, OXOID), under aerobic conditions at 37 °C, for 24 h on an orbital shaker at 200 rpm.
(§3) Minimal inhibitory concentrations (MIC) of all the peptides were determined in Mueller–Hinton medium by the broth microdilution assay, following the procedure already described[22]^,[34]. The compounds were added to bacterial suspension in each well yielding a final cell concentration of 1 × 10^6 CFU/ml and a final compound concentration ranging from 0.78 to 100 µM. Negative control wells were set to contain bacteria in Mueller–Hinton broth plus the amount of vehicle (ethanol) used to dilute each compound. Positive controls included vancomycin (2 µg/ml), tobramycin (4 µg/ml), gentamycin (4 µg/ml), and imipenem (8 µg/ml).

S. aureus ATCC 25923 = test: microbe, parasite or virus in culture; details: ATCC 25923
Description: as §1, §2, §3

[1] = tested on: K. pneumoniae ATCC BAA-1705; test: Broth microdilution MIC, reference strain; format: cell-based, Klebsiella pneumoniae
Description: as §1, §2, §3

ANTS/DPX leakage assay = details: ANTS/DPX-loaded LUVs, Gram-positive and Gram-negative mimicking
Description: Large unilamellar vesicles (LUVs) and small unilamellar vesicles (SUVs) consisting of DOPG/CL (58/42 ratio in moles) and DOPG/DOPE/CL (63/23/12 ratio in moles), mimic the Gram-positive membrane and Gram-negative membrane, respectively. LUVs were prepared using the extrusion method as previously described. In particular, first lipid films were prepared by dissolving an appropriate amount of lipids in chloroform and fluorescent probes were added when necessary, then dried under a nitrogen gas stream and freeze-dried overnight. In all experiments, we used a final lipid concentration of 0.1 mM. For fluorescence experiments, buffer was added to dry lipid films and vortexed for 1 h; then the lipid suspension was freeze-thawed 6 times and extruded 10 times through polycarbonate membranes with 0.1 µm diameter pores to obtain LUVs. For circular dichroism measurements, peptide samples in SUVs were prepared as reported in the following protocol. Lipids were dissolved in chloroform and added to an equal volume of peptide solution dissolved in TFE containing appropriate peptide concentration. The samples were vortexed and lyophilised overnight. The dry samples were rehydrated with phosphate buffer 5 mM, pH 7.4 for 1 h and sonicated for 30 min.
The ANTS/DPX leakage assay was used to measure the ability of peptide to permeabilise and induce leakage of encapsulated dyes. After lipid films were prepared as previously described, ANTS (12.5 mM) and DPX (45 mM) were dissolved in 2 ml water, were added to lipid films and then lyophilised overnight. The lipid films with encapsulated ANTS and DPX were hydrated with PBS 1X buffer, vortexed for 1 h and then treated to obtain LUVs. The non-encapsulated ANTS and DPX were removed by gel filtration using a Sephadex G-50 column (1.5 cm × 10 cm) at room temperature. To start up the leakage experiment, a 2 mM peptide stock solution was prepared and LUVs were titrated with the peptide. Samples were excited at 385 nm (slit width, 5 nm) and fluorescence emission was recorded at 512 nm (slit width, 5 nm). After the addition of peptide, we evaluated leakage of encapsulated ANTS through a change in fluorescence spectra of ANTS and DPX. In particular, leakage is associated to an increase in ANTS fluorescence at 512 nm. Complete release of ANTS was obtained by using 0.1% Triton X, which caused the total destruction of liposomes. The percentage of leakage was calculated as % leakage =(Fi−F0)/(Ft−F0), where F0 represents the fluorescence of intact LUVs before the addition of peptide, and Fi and Ft denote the intensities of the fluorescence achieved after peptide and Triton-X treatment, respectively.

[2] = Critical aggregation concentration, Nile red fluorescence; format: physicochemical; details: aqueous solution, pH 7, Nile red, 1–200 µM peptide
Description: The solvatochromic fluorescent probe Nile red is widely used to determine the CAC of self-assembling peptides. […] Since Nile red is poorly soluble in water, there is a large preference to partition aggregates, which offer hydrophobic binding sites. Initially, 1 mM methanolic Nile red was prepared. Then, the methanolic Nile red was diluted with water in order to have a final concentration of 500 nM (solution A). The peptides 1B, 2B, 3B, C, were prepared as follows[39]: peptide stock solutions (0.4 mM) were prepared by dissolving the single peptides in water (1B, C) or tetrahydrofuran (3B, 2B) and sonicating for 15 min. Different aliquots were taken to prepare solutions of each peptide at different concentrations (1, 5, 10, 15, 20, 30, 50, 100 and 200 µM). Then, all solutions were diluted with water, sonicated for 15 min and freeze-dried. Finally, the peptide powders were dissolved with the right volume of solution A and allowed to stand in the dark place for 1 h before measurement. Emission spectra for each solution were measured by a Cary Eclipse Varian spectrometer. Spectra were taken between 570 and 700 nm at a slit width of 5 nm, using an excitation wavelength of 550 nm and a 10 nm slit width. The measurements were performed in triplicate. The data were analysed by plotting the maximum emission fluorescence corresponding wavelength (y) as a function of peptide concentration (x) and fitting with the sigmoidal Boltzmann equation: y=A1+A2/1+e^(x−x0/Δx)+A2 where the variables A1 and A2 correspond to the upper and lower limits of the sigmoid, x0 is the inflection point of the sigmoid and Δx is the parameter, which characterises the steepness of the function. The sigmoidal plot allows calculating the CAC value at x0.

[3] = 100% growth inhibition after 16–18 h at 37 °C

| SMILES | Antimicrobial activity (MIC) P. aeruginosa ATCC 27853 (P. aeruginosa ATCC 27853; ATCC 27853) [µM] | Antimicrobial activity (MIC) S. aureus ATCC 25923 (S. aureus ATCC 25923) [µM] | Antimicrobial activity (MIC) K. pneumoniae ATCC BAA-1705 ([1]; ATCC BAA-1705) [µM] | membrane leakage ability (in words) (ANTS/DPX leakage assay) | CAC (critical aggregation concentration) [2] | Antimicrobial activity (MIC) P. aeruginosa ATCC 27853 (P. aeruginosa ATCC 27853; [3]) [µM] | Antimicrobial activity (MIC) K. pneumoniae ATCC BAA-1705 [1, 3] [µM] |
| --- | --- | --- | --- | --- | --- | --- | --- |
| CCCCC(=O)Nc1ccc(C[C@H](N)C(=O)N[C@H](C(=O)N2CCC[C@H]2C(=O)N[C@@H](Cc2c[nH]c3ccccc23)C(=O)N[C@@H](Cc2ccccc2)C(=O)N[C@@H](CO)C(=O)N[C@@H](CCCCN)C(=O)N[C@@H](Cc2ccccc2)C(=O)N[C@H](CC(C)C)C(=O)N[C@H](CCCCN)C(=O)N[C@@H](CCCNC(=N)N)C(=O)N[C@H](C(=O)N[C@@H](CC(C)C)C(N)=O)[C@@H](C)CC)C(C)C)cc1 [C, H-Phe(4-NHCO(CH2)3CH3)-Val-Pro-Trp-Phe-Ser-Lys-Phe-DLeu-DLys-Arg-Ile- Leu-NH2] (H-[Phe(4-NH2)](Pentanoyl)VPWFSKF[dL][dK]RIL-NH2) | 25 | 6.25 | 6.25 | intermediate ability to produce leakage | 39.5 µM | – | – |
| CC[C@H](C)[C@H](NC(=O)[C@H](CCCNC(=N)N)NC(=O)[C@@H](CCCCN)NC(=O)[C@@H](CC(C)C)NC(=O)[C@H](Cc1ccccc1)NC(=O)[C@H](CCCCN)NC(=O)[C@H](CO)NC(=O)[C@H](Cc1ccccc1)NC(=O)[C@H](Cc1c[nH]c2ccccc12)NC(=O)[C@@H]1CCCN1C(=O)[C@@H](NC(=O)[C@@H](N)Cc1ccccc1)C(C)C)C(=O)N[C@@H](CC(C)C)C(N)=O [Compound 1B, H-Phe-Val-Pro-Trp-Phe-Ser-Lys-Phe-DLeu-DLys-Arg-Ile-Leu-NH2] (H-FVPWFSKF[dL][dK]RIL-NH2) | – | 6.25 | – | lowest leakage ability | unable to aggregate under the range of concentrations investigated; also recorded: not aggregated at the concentration tested | 12.5 | 12.5 |
